Measurements as given in patent US7417048B2, “Aryl-substituted derivatives of cycloalkyl and branched chain alkyl carboxylic acids useful as antinociceptive drugs for peripheral targets” (priority 2003, dated 2008).

How the values were obtained:
[1] = system: lips and nasal mucous membranes; assay: Cooling effect of suspension applied to lips and nasal mucous membranes; assay type: in vivo, human; settings: for cooling effect on the lips and on breathing sensation: 20 mg/ml suspension in saline-10% Tween 80, lips and nasal mucous membranes
Text: Sulfadiazine is used as antibiotic for urinary tract infections and its silver salt is also used a topical antibiotic for the treatment of burn wounds. One peripheral antinociceptive compound of this discovery is derived from sulfadiazine as the -ZR″ group, and has the structure illustrated by Formula 3. […] The embodiment, coded as CPS-125, also activated the TRP-M8 coolness receptor, but not TRP-A1. […] Sulfonamides are used as topical and systemic antibiotics. Generally, these drugs are used at doses of 500 mg to gram quantities, and have relatively low toxic side effects except for the risks of renal crystalluria and drug hypersensitivity reactions. […] (St. Louis, Mo.) and coupled to p-menthoyl chloride, using the chemical synthesis described above. Each compound was then tested at 20 mg/ml on the lips and nasal mucous membranes. The compounds were added to sterile saline-10% Tween 80 mixture and stirred using a glass rod until the mixture was a homogeneous suspension. Using a clean glass rod, the suspension was first applied to the lips and nasal vestibule. After this trial, a dropper was used to apply the suspension into the nostrils, at a volume of 0.06 ml in 2 droplets per nostril.

human TRP-M8 receptor = target: T1, human TRP-M8 receptor (Homo sapiens, UniProt Q7Z2W7); assay: Fura-2 calcium fluorescence in HEK cells permanently transfected with human TRP-M8; assay type: cell-based
T1 construct: expressed in transfected cells; host or cells: human embryonic kidney cells (permanent transfection)
T1 sequence (Q7Z2W7 whole entry): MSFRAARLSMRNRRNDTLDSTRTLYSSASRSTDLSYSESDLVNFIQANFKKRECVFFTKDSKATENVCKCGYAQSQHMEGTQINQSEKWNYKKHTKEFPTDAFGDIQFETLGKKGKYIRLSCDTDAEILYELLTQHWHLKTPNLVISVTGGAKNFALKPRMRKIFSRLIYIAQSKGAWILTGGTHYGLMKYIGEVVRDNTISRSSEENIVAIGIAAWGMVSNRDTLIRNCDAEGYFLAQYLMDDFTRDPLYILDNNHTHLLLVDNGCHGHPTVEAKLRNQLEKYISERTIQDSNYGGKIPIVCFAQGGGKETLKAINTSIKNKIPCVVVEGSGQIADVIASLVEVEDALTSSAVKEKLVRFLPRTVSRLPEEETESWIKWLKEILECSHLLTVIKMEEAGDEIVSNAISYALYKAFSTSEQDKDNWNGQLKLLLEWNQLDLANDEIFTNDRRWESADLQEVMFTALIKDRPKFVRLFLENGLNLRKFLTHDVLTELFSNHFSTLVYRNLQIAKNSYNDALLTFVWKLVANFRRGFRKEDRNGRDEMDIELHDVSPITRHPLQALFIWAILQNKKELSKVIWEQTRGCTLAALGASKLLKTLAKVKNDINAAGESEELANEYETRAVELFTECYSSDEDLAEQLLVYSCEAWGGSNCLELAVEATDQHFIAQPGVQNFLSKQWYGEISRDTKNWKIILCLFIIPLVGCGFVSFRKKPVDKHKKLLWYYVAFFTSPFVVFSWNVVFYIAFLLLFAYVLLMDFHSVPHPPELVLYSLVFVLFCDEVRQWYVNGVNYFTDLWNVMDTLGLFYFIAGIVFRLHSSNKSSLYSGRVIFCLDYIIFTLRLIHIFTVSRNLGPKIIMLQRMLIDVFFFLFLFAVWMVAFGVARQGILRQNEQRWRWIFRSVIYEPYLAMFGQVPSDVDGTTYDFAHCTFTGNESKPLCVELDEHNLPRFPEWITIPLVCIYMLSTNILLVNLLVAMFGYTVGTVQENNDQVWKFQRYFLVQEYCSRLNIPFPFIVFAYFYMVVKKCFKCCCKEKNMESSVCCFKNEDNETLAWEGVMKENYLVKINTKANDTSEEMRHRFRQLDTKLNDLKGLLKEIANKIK
Method: (§1) Human embryonic kidney cells were permanently transfected with the gene for the human TRP-M8 receptor. These cells were then incubated with a calcium fluorescence indicator (Fura-2) and incubated at either 29 or 37° C. These cells were then distributed into a 96-well fluorescence-plate image reader with automated drug dilution and computerized software for dose-response analysis. The influx of calcium upon drug stimulated was quantified in fluorescence units.

[2] = cited from earlier work
mouse TRP-M8 receptor = target: T2, mouse TRP-M8 receptor (Mus musculus, UniProt Q8R4D5); assay: Voltage patch-clamp of HEK cells transiently transfected with mouse TRP-M8; assay type: cell-based; settings: for activity relative to icilin (integrated inward current, icilin as 100): 1 μM, applied 10 sec, at least 4 cells
T2 construct: expressed in transfected cells; host or cells: human embryonic kidney cells (transient transfection)
T2 sequence (Q8R4D5 whole entry): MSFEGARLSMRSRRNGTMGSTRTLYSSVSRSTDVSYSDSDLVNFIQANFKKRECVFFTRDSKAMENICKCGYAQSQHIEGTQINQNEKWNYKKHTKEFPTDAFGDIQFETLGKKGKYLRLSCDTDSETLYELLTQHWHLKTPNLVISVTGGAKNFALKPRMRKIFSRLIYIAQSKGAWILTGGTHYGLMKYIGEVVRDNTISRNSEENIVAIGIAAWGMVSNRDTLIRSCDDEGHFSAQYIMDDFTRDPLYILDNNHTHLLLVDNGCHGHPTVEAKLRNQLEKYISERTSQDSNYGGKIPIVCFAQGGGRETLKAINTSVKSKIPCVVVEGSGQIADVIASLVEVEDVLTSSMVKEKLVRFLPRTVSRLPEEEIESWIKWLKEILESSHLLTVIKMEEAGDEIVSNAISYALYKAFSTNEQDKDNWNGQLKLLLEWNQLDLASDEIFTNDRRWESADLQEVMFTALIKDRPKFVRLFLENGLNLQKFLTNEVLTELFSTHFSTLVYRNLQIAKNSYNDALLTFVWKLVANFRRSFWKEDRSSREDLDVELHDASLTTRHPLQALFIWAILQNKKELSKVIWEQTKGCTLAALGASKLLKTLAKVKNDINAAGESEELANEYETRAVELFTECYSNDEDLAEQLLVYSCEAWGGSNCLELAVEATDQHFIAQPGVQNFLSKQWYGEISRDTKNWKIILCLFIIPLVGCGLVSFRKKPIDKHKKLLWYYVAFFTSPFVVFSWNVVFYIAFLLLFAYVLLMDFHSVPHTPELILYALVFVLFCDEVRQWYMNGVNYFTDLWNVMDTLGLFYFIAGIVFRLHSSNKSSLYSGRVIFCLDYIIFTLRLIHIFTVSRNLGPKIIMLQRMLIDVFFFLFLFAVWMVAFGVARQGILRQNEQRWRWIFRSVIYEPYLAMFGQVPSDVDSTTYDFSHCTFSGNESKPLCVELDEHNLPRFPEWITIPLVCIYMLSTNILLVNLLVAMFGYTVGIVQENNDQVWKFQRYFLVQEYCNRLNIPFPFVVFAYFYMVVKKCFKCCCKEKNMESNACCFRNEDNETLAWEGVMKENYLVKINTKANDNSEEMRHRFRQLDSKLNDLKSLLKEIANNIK
Method: (§2) Human embryonic kidney cells were transiently transfected with the gene for the mouse TRP-M8 receptor. These cells were then voltage patch-clamped in a standard microscopic apparatus and the test solution electronically applied for 10 sec. The integrated areas of the inward current, measured in picoAmperes were then recorded. Icilin a standard cooling antinociceptive agent was used the positive control. Test substances were applied at 1 μM to at least 4 cells and the current recorded.

TRP-M8 coolness receptor = TRP-M8 coolness receptor (Homo sapiens, UniProt Q7Z2W7); assay: TRP-M8 coolness receptor activation (summary statement); assay type: cell-based
Chain of TRP-M8 coolness receptor (Q7Z2W7 whole entry): as the sequence (Q7Z2W7 whole entry) above
Method: as §2
as §1, with “units. […] The EC50 of CPS-125 in this test system was 6 μM and for the sulfodimethoxinyl- derivative, it was 60 μM.” for “units.”

TRP-A1 = TRP-A1 (Homo sapiens, UniProt O75762); assay: TRP-A1 activation; assay type: cell-based
Chain of TRP-A1 (O75762 whole entry, species assumed): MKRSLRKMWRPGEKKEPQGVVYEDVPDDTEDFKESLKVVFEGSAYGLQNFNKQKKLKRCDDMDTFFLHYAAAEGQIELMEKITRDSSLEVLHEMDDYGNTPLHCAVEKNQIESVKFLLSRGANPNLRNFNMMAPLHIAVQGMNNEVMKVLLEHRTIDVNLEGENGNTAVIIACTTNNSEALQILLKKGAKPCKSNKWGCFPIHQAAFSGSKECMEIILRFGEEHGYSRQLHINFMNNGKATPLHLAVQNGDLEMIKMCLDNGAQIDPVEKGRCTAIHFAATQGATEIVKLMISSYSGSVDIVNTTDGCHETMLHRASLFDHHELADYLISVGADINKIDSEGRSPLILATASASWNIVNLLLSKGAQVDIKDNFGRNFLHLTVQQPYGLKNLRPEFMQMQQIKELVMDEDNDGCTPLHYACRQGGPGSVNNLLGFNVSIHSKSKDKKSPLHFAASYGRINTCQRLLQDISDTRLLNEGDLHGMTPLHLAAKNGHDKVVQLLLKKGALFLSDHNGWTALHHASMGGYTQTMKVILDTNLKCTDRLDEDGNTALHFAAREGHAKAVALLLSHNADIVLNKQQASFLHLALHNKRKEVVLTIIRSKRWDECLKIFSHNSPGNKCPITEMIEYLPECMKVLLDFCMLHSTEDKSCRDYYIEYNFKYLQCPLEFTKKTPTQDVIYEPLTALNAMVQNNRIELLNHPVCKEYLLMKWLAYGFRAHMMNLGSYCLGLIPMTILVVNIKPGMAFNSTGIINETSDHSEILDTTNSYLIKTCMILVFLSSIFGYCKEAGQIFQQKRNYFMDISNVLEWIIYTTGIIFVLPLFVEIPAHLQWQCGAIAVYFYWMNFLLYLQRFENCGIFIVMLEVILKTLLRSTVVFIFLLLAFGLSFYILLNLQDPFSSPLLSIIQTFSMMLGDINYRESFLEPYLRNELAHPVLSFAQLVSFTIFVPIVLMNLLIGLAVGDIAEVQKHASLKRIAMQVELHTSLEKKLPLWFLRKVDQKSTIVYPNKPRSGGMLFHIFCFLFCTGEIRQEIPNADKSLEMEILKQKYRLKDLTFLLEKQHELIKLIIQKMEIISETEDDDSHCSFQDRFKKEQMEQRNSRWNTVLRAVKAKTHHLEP

Row | Compound | cooling effect on the lips and on breathing sensation [1] | pKa [2] | also measured
1 | COc1cc(NS(=O)(=O)c2ccc(NC(=O)C3CC(C)CCC3C(C)C)cc2)nc(OC)n1 (stereo not shown) [sulfadimethoxine analog] | slightly active | – | EC50 (human TRP-M8 receptor; Fura-2, 29 or 37° C., 96-well plate reader, read-out: EC50 (median effective concentration, calcium influx)): 60 µM
2 | Nc1ccc(C(=O)NS(=O)(=O)c2ccc(N)cc2)cc1 [N1-p-aminobenzoylsulfanilamide] | – | 5.20 | –
3 | Nc1ccc(S(=O)(=O)NC(=O)CCl)cc1 [N1-chloroacetylsulfanilamide] | – | 3.79 | –
4 | CC1CCC(C(C)C)C(C(=O)Nc2ccc(S(N)(=O)=O)cc2)C1 (stereo not shown) [CPS-126] | inactive | – | activity relative to icilin (integrated inward current, icilin as 100) (mouse TRP-M8 receptor): 2%
5 | Nc1ccc(S(=O)(=O)Nc2ccccn2)cc1 [sulfapyridine] | – | 8.43 | –
6 | Nc1ccc(S(=O)(=O)Nc2nncs2)cc1 [S-1,3,4-thiadiazole] | – | 4.77 | –
7 | Nc1ccc(S(=O)(=O)Nc2nccs2)cc1 [sulfathiazole] | – | 7.12 | –
8 | Cc1noc(NS(=O)(=O)c2ccc(NC(=O)C3CC(C)CCC3C(C)C)cc2)c1C (stereo not shown) [sulfisoxazole analog] | slightly active | – | –
9 | COc1ccc(NS(=O)(=O)c2ccc(NC(=O)C3CC(C)CCC3C(C)C)cc2)nn1 (stereo not shown) [sulfamethoxypyridazine analog] | moderate activities | – | –
10 | CC1CCC(C(C)C)C(C(=O)Nc2ccc(S(=O)(=O)Nc3ncccn3)cc2)C1 (stereo not shown) [CPS-125, 2-Isopropyl-5-methyl-cyclohexanecarboxylic acid [4-(pyrimidin-2-ylsulfamoyl)-phenyl]-amide] | gentle, cooling refreshing effect | – | activity relative to icilin (integrated inward current, icilin as 100) (mouse TRP-M8 receptor): 41%; EC50 (mouse TRP-M8 receptor; patch-clamp dose-response, read-out: EC50 for full activation of the receptor): 2 µM; activation of TRP-M8 coolness receptor (TRP-M8 coolness receptor): activated; activation of TRP-A1 (TRP-A1): not; duration of cooling effect ([1]; 1 mg per nostril, 0.06 ml in 2 droplets per nostril): up to 3 hr; ΔFmax (maximum fluorescence increase at the maximum concentration tested) (human TRP-M8 receptor; Fura-2 fluorescence units): 14,000 units
11 | COc1cnc(NS(=O)(=O)c2ccc(NC(=O)C3CC(C)CCC3C(C)C)cc2)nc1 (stereo not shown) [sulfameter analog] | moderate activities | – | –
